In patent US11932642B1, “Substituted pyrido[3′,4′:4,5]pyrrolo[3,2-b][1,6]naphthyridines as CK2 inhibitors” (KING FAISAL UNIVERSITY, priority 2023, dated 2024):

Experiments:
[1] = tested on: PC3 (prostate); assay: In vitro cytotoxic activity (MTT) assay, PC3; type: cell-based; details: Homo sapiens, Prostate cell; PC3 (prostate) cells, exposed for 96 hours; read-out: IC50, concentration of compound eliciting a 50% inhibition of cell proliferation
Procedure: (§1) Compounds 1-12 were screened for their in vitro cytotoxic activity utilizing a 3-(4,5-dimethyl-thiazol-2-yl)-2,5-diphenyltetrazolium bromide (MTT) assay against selected cancer human cell lines consisting of PC3 (prostate), HCT116 (colon), A375 (melanoma), H1299 (lung), MIAPaCa-2 (pancreas), HL60 (leukemia), MCF7 (breast), MDA-MB-231 (breast) (T. Mosmann, J. Immunol. Meth., 1983, 65, 55-63). The cells were cultured at 37° C. in RMPI1640 medium supplemented with 10% fetal bovine serum, 50 IU/mL penicillin, and 50 μg/mL streptomycin in a 5% CO2 incubator. All cells were sub-cultured 3 times/week by trypsinisation. Viable cells were seeded and allowed to adhere for 12 h before a test drug was added in 96-well plates at an initial density of 1.0×10^5 cells/mL. Tumour cell lines were separately exposed to various concentrations of the tested compounds followed by incubation at a temperature of 37° C. during 96 h inside a medium of fresh RMPI 1640. Cells were subsequently incubated at 37° C. using MTT at 0.5 mg/mL during 4 h. After removal of supernatant, formazan crystals were dissolved in isopropanol and the optical density was measured at 570 nm. CX-4945 was used as a positive control.

[2] = tested on: HCT116 (colon); assay: In vitro cytotoxic activity (MTT) assay, HCT116; type: cell-based; details: Homo sapiens, HCT-116; HCT116 (colon) cells, exposed for 96 hours; read-out: IC50, concentration of compound eliciting a 50% inhibition of cell proliferation
Procedure: as §1

[3] = tested on: A375 (melanoma); assay: In vitro cytotoxic activity (MTT) assay, A375; type: cell-based; details: Homo sapiens, A-375; A375 (melanoma) cells, exposed for 96 hours; read-out: IC50, concentration of compound eliciting a 50% inhibition of cell proliferation
Procedure: as §1

[4] = tested on: H1299 (lung); assay: In vitro cytotoxic activity (MTT) assay, H1299; type: cell-based; details: Homo sapiens, NCI-H1299; H1299 (lung) cells, exposed for 96 hours; read-out: IC50, concentration of compound eliciting a 50% inhibition of cell proliferation
Procedure: as §1

[5] = tested on: MIAPaCa-2 (pancreas); assay: In vitro cytotoxic activity (MTT) assay, MIAPaCa-2; type: cell-based; details: Homo sapiens, MIA PaCa-2; MIAPaCa-2 (pancreas) cells, exposed for 96 hours; read-out: IC50, concentration of compound eliciting a 50% inhibition of cell proliferation
Procedure: as §1

[6] = tested on: HL60 (leukemia); assay: In vitro cytotoxic activity (MTT) assay, HL60; type: cell-based; details: Homo sapiens, HL-60; HL60 (leukemia) cells, exposed for 96 hours; read-out: IC50, concentration of compound eliciting a 50% inhibition of cell proliferation
Procedure: as §1

[7] = tested on: MCF7 (breast); assay: In vitro cytotoxic activity (MTT) assay, MCF7; type: cell-based; details: Homo sapiens; MCF7 (breast) cells, exposed for 96 hours; read-out: IC50, concentration of compound eliciting a 50% inhibition of cell proliferation
Procedure: as §1

[8] = tested on: MDA-MB-231 (breast); assay: In vitro cytotoxic activity (MTT) assay, MDA-MB-231; type: cell-based; details: Homo sapiens; MDA-MB-231 (breast) cells, exposed for 96 hours; read-out: IC50, concentration of compound eliciting a 50% inhibition of cell proliferation
Procedure: as §1

[9] = biological target: T1, recombinant human CK2 (RRββ-holoenzyme) (Homo sapiens, UniProt P68400); assay: CK2 Kinase Assay (radiometric, [γ-33P] ATP); type: biochemical; details: final ATP concentration 15 μM, 10 min at 30° C.; read-out: protein kinase CK2 IC50
T1 construct: purchased Millipore
T1 sequence (P68400 whole entry): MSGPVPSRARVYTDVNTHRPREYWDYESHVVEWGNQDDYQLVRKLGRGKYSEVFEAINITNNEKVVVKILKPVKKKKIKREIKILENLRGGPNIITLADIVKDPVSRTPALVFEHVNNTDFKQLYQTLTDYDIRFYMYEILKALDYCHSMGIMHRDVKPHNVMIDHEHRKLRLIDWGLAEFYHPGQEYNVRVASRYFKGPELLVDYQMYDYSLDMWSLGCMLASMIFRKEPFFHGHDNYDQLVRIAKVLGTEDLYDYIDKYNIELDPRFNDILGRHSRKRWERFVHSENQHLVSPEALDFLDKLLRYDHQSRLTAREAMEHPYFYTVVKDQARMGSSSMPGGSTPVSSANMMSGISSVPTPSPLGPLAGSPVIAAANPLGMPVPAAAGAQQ
T1 sequence (P67870 whole entry partner): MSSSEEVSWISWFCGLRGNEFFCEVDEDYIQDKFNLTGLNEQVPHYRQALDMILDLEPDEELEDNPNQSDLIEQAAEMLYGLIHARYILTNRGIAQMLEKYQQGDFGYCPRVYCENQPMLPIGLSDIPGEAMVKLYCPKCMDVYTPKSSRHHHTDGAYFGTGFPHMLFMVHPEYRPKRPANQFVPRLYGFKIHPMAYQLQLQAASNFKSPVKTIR
Procedure: CK2 Kinase Assay was conducted using the protocol as described in Pierre F. et al; J. Med. Chem. 2011, 54, 635-654. The tested compounds in aqueous solution were added at a volume of 10 μL to a reaction mixture comprising 10 μL of assay dilution buffer (ADB; 20 mM MOPS, pH 7.2, 25 mM β-glycerol phosphate, 5 mM EGTA, 1 mM sodium orthovanadate, and 1 mM dithiothreitol), 10 μL of substrate peptide (RRRDDDSDDD, dissolved in ADB at a concentration of 1 mM), 10 μL of recombinant human CK2 (RRββ-holoenzyme, 25 ng dissolved in ADB; Millipore). Reactions were initiated by the addition of 10 μL of ATP solution (90% 75 mMMgCl2, 75 μM ATP (final ATP concentration: 15 μM) dissolved in ADB; 10% [γ-33P] ATP (stock 1 mCi/100 μL; 3000 Ci/mmol (Perkin-Elmer) and maintained for 10 min at 30° C. The reactions were quenched with 100 μL of 0.75% phosphoric acid and then transferred to and filtered through a phosphor cellulose filter plate (Millipore). After washing each well five times with 0.75% phosphoric acid, the plate was dried under vacuum for 5 min and, following the addition of 15 μL of scintillation fluid to each well, the residual radioactivity was measured using a Wallac […] counter. The IC50 values were derived from eight concentrations of test inhibitors.

For `Clc1cccc(Nc2c3cnccc3nc3c2[nH]c2ccncc23)c1` [Compound (1), N-(3-chlorophenyl)-10H-pyrido[3′,4′:4,5]pyrrolo[3,2-b][1,6]naphthyridin-11-amine], the IC50 [1] was 1.7 µM, the IC50 [2] was 1.1 µM and the IC50 [3] was 2.8 µM. The IC50 [4] was 3.2 µM, the IC50 [5] was 0.9 µM and the IC50 [6] was 2.4 µM. The IC50 [7] was 7.6 µM, the IC50 [8] was 5.4 µM and the IC50 [9] was 0.064 µM.
